Tests used:
Assay type in all cases: in vivo
[1] = test system: ragweed (common ragweed, Ambrosia elatior); test: Test A preemergence; details: Ambrosia artemisiifolia, pre-emergence, 240 h; for pest or weed control at 125 g/ha: 125 g ai/ha, preemergence, 0 to 100 scale where 0 is no effect and 100 is complete control, read-out: Ragweed plant response rating; for pest or weed control at 500 g/ha: 500 g ai/ha, Preemergence, visual injury vs untreated controls after approximately 10 d, read-out: Ragweed plant response rating (0 to 100 scale where 0 is no effect and 100 is complete control)
How it was run: (§1)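 Compounds were formulated in a non-phytotoxic solvent mixture with surfactant and applied as a preemergence directed soil spray after seeding, or sprayed postemergence over plants 2 to 10 cm tall at the one- to two-leaf stage. Evaluation after about 10 d compared treated with untreated controls, using a scale from 0 (no effect) to 100 (complete control).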

[2] = test system: giant foxtail (Setaria faberii); test: Test A preemergence; details: Setaria faberi, pre-emergence, 240 h; for pest or weed control at 125 g/ha: 125 g ai/ha, preemergence, 0 to 100 scale where 0 is no effect and 100 is complete control, read-out: Foxtail, Giant plant response rating; for pest or weed control at 500 g/ha: 500 g ai/ha, Preemergence, visual injury vs untreated controls after approximately 10 d, read-out: Foxtail, Giant plant response rating (0 to 100 scale where 0 is no effect and 100 is complete control)
How it was run: as §1

[3] = test system: pigweed (Amaranthus retroflexus); test: Test A preemergence; details: Amaranthus retroflexus, pre-emergence, 240 h; for pest or weed control at 125 g/ha: 125 g ai/ha, preemergence, 0 to 100 scale where 0 is no effect and 100 is complete control, read-out: Pigweed plant response rating; for pest or weed control at 500 g/ha: 500 g ai/ha, Preemergence, visual injury vs untreated controls after approximately 10 d, read-out: Pigweed plant response rating (0 to 100 scale where 0 is no effect and 100 is complete control)
Kochia (Kochia scoparia) [4] = test: Test A preemergence; details: Bassia scoparia, pre-emergence, 240 h; for pest or weed control at 125 g/ha: 125 g ai/ha, preemergence, 0 to 100 scale where 0 is no effect and 100 is complete control, read-out: Kochia plant response rating; for pest or weed control at 500 g/ha: 500 g ai/ha, Preemergence, visual injury vs untreated controls after approximately 10 d, read-out: Kochia plant response rating (0 to 100 scale where 0 is no effect and 100 is complete control)
How it was run: as §1

[5] = test system: barnyardgrass (Echinochloa crus-galli); test: Test A preemergence; details: Echinochloa crus-galli, pre-emergence, 240 h; for pest or weed control at 125 g/ha: 125 g ai/ha, preemergence, 0 to 100 scale where 0 is no effect and 100 is complete control, read-out: Barnyardgrass plant response rating; for pest or weed control at 500 g/ha: 500 g ai/ha, Preemergence, visual injury vs untreated controls after approximately 10 d, read-out: Barnyardgrass plant response rating (0 to 100 scale where 0 is no effect and 100 is complete control)
How it was run: as §1

[6] = test system: ryegrass, Italian (Italian ryegrass, Lolium multiflorum); test: Test A preemergence; details: Lolium multiflorum, pre-emergence, 240 h; for pest or weed control at 125 g/ha: 125 g ai/ha, preemergence, 0 to 100 scale where 0 is no effect and 100 is complete control, read-out: Ryegrass, Italian plant response rating; for pest or weed control at 500 g/ha: 500 g ai/ha, Preemergence, visual injury vs untreated controls after approximately 10 d, read-out: Ryegrass, Italian plant response rating (0 to 100 scale where 0 is no effect and 100 is complete control)
How it was run: as §1

[7] = test system: ragweed (common ragweed, Ambrosia elatior); test: Test A postemergence; details: Ambrosia artemisiifolia, post-emergence, 240 h, 125 g ai/ha, postemergence, visual injury rating after approximately 10 d; read-out: Ragweed plant response rating (0 to 100 scale, 0 no effect, 100 complete control)
How it was run: as §1

[8] = test system: wheat (Triticum aestivum); test: Test A postemergence; details: Triticum aestivum, post-emergence, 240 h, 125 g ai/ha, postemergence, visual injury rating after approximately 10 d; read-out: Wheat plant response rating (0 to 100 scale, 0 no effect, 100 complete control)
How it was run: as §1

[9] = test system: pigweed (Amaranthus retroflexus); test: Test A postemergence; details: Amaranthus retroflexus, post-emergence, 240 h, 125 g ai/ha, postemergence, visual injury rating after approximately 10 d; read-out: Pigweed plant response rating (0 to 100 scale, 0 no effect, 100 complete control)
How it was run: as §1

Kochia (Kochia scoparia) [10] = test: Test A postemergence; details: Bassia scoparia, post-emergence, 240 h, 125 g ai/ha, postemergence, visual injury rating after approximately 10 d; read-out: Kochia plant response rating (0 to 100 scale, 0 no effect, 100 complete control)
How it was run: as §1

[11] = test system: blackgrass (Alopecurus myosuroides); test: Test A postemergence; details: Alopecurus myosuroides, post-emergence, 240 h, 125 g ai/ha, postemergence, visual injury rating after approximately 10 d; read-out: Blackgrass plant response rating (0 to 100 scale, 0 no effect, 100 complete control)
How it was run: as §1

[12] = test system: Galium (catchweed bedstraw, Galium aparine); test: Test A postemergence; details: Galium, post-emergence, 240 h, 125 g ai/ha, postemergence, visual injury rating after approximately 10 d; read-out: Galium plant response rating (0 to 100 scale, 0 no effect, 100 complete control)
How it was run: as §1

corn (Zea mays) = test: Test A postemergence; details: Zea mays, post-emergence, 240 h, 125 g ai/ha, postemergence, visual injury rating after approximately 10 d; read-out: Corn plant response rating (0 to 100 scale, 0 no effect, 100 complete control)
How it was run: as §1

[13] = test system: barnyardgrass (Echinochloa crus-galli); test: Test A postemergence; details: Echinochloa crus-galli, post-emergence, 240 h, 125 g ai/ha, postemergence, visual injury rating after approximately 10 d; read-out: Barnyardgrass plant response rating (0 to 100 scale, 0 no effect, 100 complete control)
How it was run: as §1

[14] = test system: ryegrass, Italian (Italian ryegrass, Lolium multiflorum); test: Test A postemergence; details: Lolium multiflorum, post-emergence, 240 h, 125 g ai/ha, postemergence, visual injury rating after approximately 10 d; read-out: Ryegrass, Italian plant response rating (0 to 100 scale, 0 no effect, 100 complete control)
How it was run: as §1

SMILES | pest or weed control at 125 g/ha [1] [%] | pest or weed control at 500 g/ha [1] [%] | pest or weed control at 125 g/ha [2] [%] | pest or weed control at 500 g/ha [2] [%] | pest or weed control at 125 g/ha [3] [%] | pest or weed control at 500 g/ha [3] [%] | pest or weed control at 125 g/ha (Kochia (Kochia scoparia) [4]) [%] | pest or weed control at 500 g/ha (Kochia (Kochia scoparia) [4]) [%] | pest or weed control at 125 g/ha [5] [%] | pest or weed control at 500 g/ha [5] [%] | pest or weed control at 125 g/ha [6] [%] | pest or weed control at 500 g/ha [6] [%] | pest or weed control at 125 g/ha [7] [%] | plant injury at 125 g/ha [8] [%] | pest or weed control at 125 g/ha [9] [%] | pest or weed control at 125 g/ha (Kochia (Kochia scoparia) [10]) [%] | pest or weed control at 125 g/ha [11] [%] | pest or weed control at 125 g/ha [12] [%] | plant injury at 125 g/ha (corn (Zea mays)) [%] | pest or weed control at 125 g/ha [13] [%] | further results
CN1C[C@H](c2cccc(C3CC3)c2)[C@@H](C(=O)Nc2cccc(F)c2F)C1=O [Compound 816] | 20 | 50 | 90 | 90 | 0 | 60 | 60 | 80 | 90 | 90 | 70 | 80 | 0 | 30 | 0 | 30 | 60 | 60 | 90 | 90 | pest or weed control at 125 g/ha [14]: 60%
CN1C[C@H](c2cccc(F)c2)[C@@H](C(=O)Nc2ccccc2S(C)(=O)=O)C1=O [Compound 824] | 20 | 50 | 90 | 100 | 0 | 40 | 60 | 70 | 90 | 100 | 20 | 40 | 30 | 0 | 0 | 0 | 20 | 40 | 0 | 90 | pest or weed control at 125 g/ha [14]: 30%
O=C1NC[C@H](c2cccc(C(F)(F)F)c2)[C@H]1C(=O)Nc1cccc2c1OC(F)(F)O2 [Compound 827] | 0 | 20 | 90 | 90 | 20 | 40 | 30 | 60 | 90 | 90 | 30 | 70 | 0 | 20 | 0 | 0 | 40 | 40 | 20 | 70 | pest or weed control at 125 g/ha [14]: 0%
Cc1c(F)ccc([C@H]2CNC(=O)[C@@H]2C(=O)Nc2ccc(F)c(F)c2F)c1F [Compound 830] | 0 | 20 | 90 | 90 | 20 | 40 | 70 | 90 | 90 | 90 | 0 | 30 | 0 | 0 | 0 | 30 | 20 | 30 | 0 | 90 | pest or weed control at 125 g/ha [14]: 20%
